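96-well plates; 48 h exposure; 5 concentrations. Endpoints by linear interpolation between flanking doses. Not reached: highest tested concentration assigned. GI50 is the concentration that inhibits growth by half.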 Calls of active or inactive are those of the source. Cut-off read from the data, not from the text of the source: active = GI50 up to about 1.1 µM and inactive = higher.

Holding throughout (assay): inhibition of tumour cell growth, NCI panel, 48 h
In assay [1] the test system is NCI-H460.
For assay [2], the system named is 786-0.
For assay [3], the system named is OVCAR-3.
The subject of assay [4] is SNB-75.
For assay [5], the system named is EKVX.
Assay [6] relates to COLO 205.
In assay [7] the test system is UO-31.
In assay [8] the test system is K562.
For assay [9], the system named is CAKI-1.
Assay [10] deals with TK-10.
Assay [11] deals with CCRF-CEM.
Assay [12] concerns UACC-62.
Assay [13] has as its system SF-539.
The subject of assay [14] is RPMI-8226.
Assay [15] concerns NCI/ADR-RES.

Consider `COc1ccc(/C=C/C(=O)c2sc(-c3cccnc3)nc2C)cc1`, for which the GI50 was 53.5 µM (inactive) in assay [1]; 41.6 µM (inactive) in assay [2]; 24.2 µM (inactive) in [3]; 30.1 µM (inactive) in [4]; > 100 µM (inactive) in assay [5]; 48.3 µM (inactive) in assay [6]. Further, the GI50 is 41.7 µM (inactive) in [7]; 21.8 µM (inactive) in assay [8]; 49.9 µM (inactive) in assay [9]; 38.6 µM (inactive) in [10]; 28.6 µM (inactive) in assay [11]; 46.3 µM (inactive) in assay [12]. In addition, the GI50 in [13] is 21.1 µM (inactive); in assay [14], 2.9 µM (inactive).

On to `COC(=O)C1=Cc2cc(OC)c(OC)c(OC)c2[C@H](c2cc(OC)c(OC)c(OC)c2)C1C(=O)OC` (stereo partly drawn), for which the GI50 in [1], in assay [2], in assay [3], in assay [4], in assay [5] and in assay [6] was > 100 µM (inactive) each time. Further, the GI50 in assay [7], in assay [8], in assay [9], in assay [10], in assay [11] and in assay [12] was > 100 µM (inactive) each time. Moreover, the GI50 in [13] and in assay [14] was > 100 µM (inactive) in each case.

On to `Cc1cc2nc(O)c(CCC(=O)O)nc2cc1C`, for which the GI50 was > 100 µM (inactive) in assay [1]; > 100 µM (inactive) in [2]; > 100 µM (inactive) in assay [3]; > 100 µM (inactive) in [4]; > 100 µM (inactive) in [5]; 70.6 µM (inactive) in assay [6]. For the same molecule, the GI50 in [7], in assay [8], in [9], in assay [10], in assay [11] and in assay [12] was > 100 µM (inactive) each time. Further, the GI50 in assay [13] and in [14] was > 100 µM (inactive) in each case.

For the molecule `O=C(NCO)NCOCn1c(=O)n(CO)c(=O)n(CO)c1=O`, the GI50 in [1] is 33.1 µM (inactive); in assay [2], 34.6 µM (inactive); in assay [3] it was 84.1 µM (inactive); in assay [4], 35.8 µM (inactive); in assay [5], > 100 µM (inactive); in [6] it was 27.4 µM (inactive). Moreover, the GI50 was > 100 µM (inactive) in assay [7]; 32.1 µM (inactive) in assay [8]; 40.6 µM (inactive) in assay [9]; > 100 µM (inactive) in assay [10]; 14.4 µM (inactive) in [11]; 19.1 µM (inactive) in assay [12]. The values for the GI50 in assay [13] and in assay [14] were > 100 µM (inactive) and 25.4 µM (inactive), respectively.

For `CC(/C=C/NNC1=NN=C(c2ccccc2)C(c2ccccc2)N1)Sc1ccccc1N` (stereo not drawn), the GI50 in assay [1] is 9.98 µM (inactive); in assay [2], 3.71 µM (inactive); in assay [3], 10.3 µM (inactive); in [4], 3.3 µM (inactive); in assay [5], 18.5 µM (inactive); in assay [6], 15.3 µM (inactive). Also, the GI50 was 6.53 µM (inactive) in assay [7]; 6.24 µM (inactive) in assay [8]; 14.7 µM (inactive) in [9]; 14.2 µM (inactive) in assay [10]; 2.46 µM (inactive) in assay [11]; 3.39 µM (inactive) in assay [12]. Moreover, the figures for the GI50 in assay [13] and in assay [14] were 8.24 µM (inactive) and 3.64 µM (inactive), respectively.

`O=C1NC(=S)NC(=O)C1=Cc1ccc2ccccc2n1`: the GI50 in assay [1], in assay [2], in assay [3], in assay [4], in assay [5] and in assay [6] was > 100 µM (inactive) in each case. The GI50 in assay [7], in [8], in [9], in [10], in assay [11] and in assay [12] was > 100 µM (inactive) throughout. Also, the GI50 in assay [13] and in assay [14] was > 100 µM (inactive) each time.

On to `CN(C)CC1CC/C(=C\c2ccc(Cl)cc2)C1=O` (stereo not drawn), for which the GI50 was 17.4 µM (inactive) in [1]; 2.2 µM (inactive) in assay [2]; 7.35 µM (inactive) in [3]; 14.8 µM (inactive) in assay [4]; 12.7 µM (inactive) in assay [5]; 4.19 µM (inactive) in [6]. Also, the GI50 was 16.6 µM (inactive) in assay [7]; 0.908 µM (active) in assay [8]; 3.33 µM (inactive) in [9]; 3.24 µM (inactive) in assay [15]; 9.86 µM (inactive) in assay [10]; 0.611 µM (active) in assay [11]. Besides, the GI50 in assay [12] was 7.5 µM (inactive); in assay [13], 13.7 µM (inactive); in assay [14], 0.441 µM (active).

`C1CN(P2(N3CC3)=NP(N3CC3)(N3CC3)=NP(N3CC3)(N3CC3)=N2)CCO1` (stereo not drawn) [FOTRETAMINE]: the GI50 in assay [1] is 4.57 µM (inactive); in assay [2], 55.3 µM (inactive); in assay [3], > 100 µM (inactive); in assay [4], 55.7 µM (inactive); in [5], > 100 µM (inactive); in [6] it was > 100 µM (inactive). Moreover, the GI50 in assay [7] was > 100 µM (inactive); in assay [8] it was > 77.8 µM (inactive); in assay [9] it was > 100 µM (inactive); in [10] it was > 100 µM (inactive); in [11], 23 µM (inactive); in assay [12], > 56.6 µM (inactive). The GI50 in [13] is 44.8 µM (inactive); in assay [14], > 95.7 µM (inactive).

For `CCOC(=O)c1csc(CCCCCCc2nc(C(=O)OCC)cs2)n1`, the GI50 in assay [1] is 29.7 µM (inactive); in assay [2], 33.2 µM (inactive); in assay [3] it was 99.5 µM (inactive); in assay [4] it was 21.1 µM (inactive); in assay [5], > 86.7 µM (inactive); in [6], > 52.6 µM (inactive). Further, the GI50 in assay [7] was > 100 µM (inactive); in assay [8], > 40.1 µM (inactive); in assay [9] it was > 88.7 µM (inactive); in assay [10] it was > 92.5 µM (inactive); in assay [11] it was > 42.3 µM (inactive); in assay [12] it was > 83.8 µM (inactive). The GI50 in [13] is > 58.3 µM (inactive); in [14] it was > 48.8 µM (inactive).

As for `COc1ccc(-c2cc(-c3cc(Cl)cc(Br)c3O)nc(O)n2)cc1`, the GI50 in assay [1] is 17.9 µM (inactive); in assay [2], 15.5 µM (inactive); in assay [3] it was 17.5 µM (inactive); in assay [4], 15.4 µM (inactive); in [5], 5.87 µM (inactive); in assay [6], 15.6 µM (inactive). The GI50 in [7] was 17.3 µM (inactive); in assay [8], 14.1 µM (inactive); in [9] it was 16.4 µM (inactive); in assay [10], 26.2 µM (inactive); in assay [11], 19.8 µM (inactive); in assay [12] it was 14.9 µM (inactive). For the same molecule, the GI50 in assay [13] is 14.7 µM (inactive); in [14], 18.8 µM (inactive).

Take `CC1CC2C3CCC4=CC(=O)C=CC4(C)C3(F)C(O)CC2(C)C1(O)C(=O)CO.Cc1nnc(NS(=O)(=O)c2ccc(/N=N/c3cc(/N=N/c4ccc(S(=O)(=O)Nc5nnc(C)s5)cc4)c4c(NC(=O)C(Cl)Cl)cccc4c3OC(=O)C(Cl)Cl)cc2)s1`: the GI50 in [1] was 21.5 µM (inactive); in [2], 25.6 µM (inactive); in assay [3] it was 19.2 µM (inactive); in [4] it was 37.3 µM (inactive); in [5], 34.4 µM (inactive); in assay [6], 12.1 µM (inactive). Also, the GI50 was 46.7 µM (inactive) in assay [7]; 22.9 µM (inactive) in assay [8]; 81.5 µM (inactive) in [9]; 43.3 µM (inactive) in assay [10]; 1.08 µM (active) in [11]; 33 µM (inactive) in [12]. The GI50 in [13] was 18.9 µM (inactive); in assay [14], < 0.01 µM (active).

For the molecule `O=c1[nH]c(S)nc2c1sc(=S)n2-c1ccccc1`, the GI50 in assay [1] was > 100 µM (inactive); in [2], > 100 µM (inactive); in assay [3] it was > 100 µM (inactive); in assay [4], 55.1 µM (inactive); in assay [5] it was > 100 µM (inactive); in [6], > 100 µM (inactive). In addition, the GI50 in [7], in assay [8], in assay [9], in assay [10], in assay [11] and in assay [12] was > 100 µM (inactive) in each case. Also, the GI50 in assay [13] and in assay [14] was > 100 µM (inactive) throughout.

For `CC1(C)Oc2ccccc2N2O[C@@H]3C(=O)N(c4ccccc4)C(=O)[C@@H]3C21c1ccccc1` (stereo partly drawn), the GI50 in assay [1] is 28.9 µM (inactive); in assay [2], 16.6 µM (inactive); in assay [3], 21.2 µM (inactive); in assay [4], 17.7 µM (inactive); in assay [5], 56.1 µM (inactive); in assay [6], 39.1 µM (inactive). Also, the GI50 was 66.1 µM (inactive) in assay [7]; 37.4 µM (inactive) in assay [8]; 24.9 µM (inactive) in assay [9]; 17.9 µM (inactive) in assay [10]; 27.7 µM (inactive) in assay [11]; 33.1 µM (inactive) in assay [12]. Further, the values for the GI50 in assay [13] and in assay [14] were 17.3 µM (inactive) and 37.8 µM (inactive), respectively.

For the origin of these results see ChEMBL document CHEMBL1201862, “PubChem BioAssay data set” (2004).
